What was measured:
[1] = target: T1, iNOS (Rattus norvegicus, UniProt Q06518); assay: Inhibition of iNOS in situ in rat aortic rings (induced smooth muscle tone, LPS-exposed endothelium-denuded rings); format: cell-based; details: for IC50: endothelium-denuded, LPS 6 h, phenylephrine approx. ED90
T1 construct: endothelium-denuded rings were exposed to LPS; from tissue; host or cells: rat thoracic aorta rings, endothelium-denuded, LPS-exposed
Method: (§1) 1. Inhibition of eNOS and iNOS in Rat Aortic Rings
(§2) The inhibition of eNOS and iNOS in situ in rat aortic rings was assessed by measuring the increases in ring tension caused by NO synthase inhibition. For studies of basal tone (reflecting eNOS), rings of thoracic aorta with intact endothelium were prepared as described previously (Rees et al. (1989) Br. J. Pharmol. 96, 418-424) and cumulative concentration curves obtained for the inhibitors in the presence of a threshold concentration of phenylephrine (ED10≈10 nM). For studies of induced smooth muscle tone (reflecting iNOS), endothelium-denuded rings were exposed to LPS (0.1 μ/ml from S. typhosa) in the presence of phenylephrine at approximately ED90 for 6 h as described previously (Rees et al. (1990) Biochem. Biophys. Res. Commun. 173, 541-547). During this time a progressive loss of tone occurred because of iNOS induction. Cumulative concentration curves were then obtained for the inhibitors.

[2] = target: T2, eNOS (Rattus norvegicus, UniProt Q62600); assay: Inhibition of eNOS in situ in rat aortic rings (basal tone, intact endothelium); format: cell-based; details: rat aortic rings with intact endothelium, threshold phenylephrine
T2 construct: from tissue; host or cells: rat thoracic aorta rings with intact endothelium
Method: as §1, §2

| Structure (SMILES) | selectivity iNOS vs eNOS [1] | IC50 [1] | eNOS % inhib @ 300 μM [2] |
| --- | --- | --- | --- |
| CC(=N)NCCSCCC(N)C(=O)O (racemic) [Example 2, (R/S)-[2-(1-iminoethylamino)ethyl]-D,L-homocysteine] | >500 fold | 0.45 µM | 53% |
| CC(=N)NCCSCC[C@@H](N)C(=O)O [Example 3, (R)-[2-(1-iminoethylamino)ethyl]-D-homocysteine] | >150 fold | 6.6 µM | 20% |

From patent publication US6620848B2, “Nitric oxide synthase inhibitors” (SmithKline Beecham Corporation, priority 1997, dated 2003)
